Assay results as given in ChEMBL document CHEMBL5390293, “Additional Sarasinosides from the Marine Sponge Melophlus sarasinorum Collected from the Bismarck Sea” (J Nat Prod, 2023).
Calls of active or inactive are those of the source. The calls are words filed in the database; no cut-off is given here.

Legend:
Nakaseomyces glabratus = experiment: Antimicrobial activity against Candida glabrata assessed as fungal growth inhibition; format: functional, organism-based
Candida albicans = experiment: Antimicrobial activity against Candida albicans assessed as fungal growth inhibition; format: functional, organism-based
MCF7 = experiment: Cytotoxicity against human MCF7 cells assessed as cell viability at 20 ug/ml by MTT assay; format: functional, cell-based; conditions: dose 20.0 µg/ml
Candida parapsilosis = experiment: Antimicrobial activity against Candida parapsilosis assessed as fungal growth inhibition; format: functional, organism-based
A2058 = experiment: Cytotoxicity against human A2058 cells assessed as cell viability at 20 ug/ml by MTT assay; format: functional, cell-based; conditions: dose 20.0 µg/ml
Acinetobacter baumannii = experiment: Antimicrobial activity against Acinetobacter baumannii assessed as bacterial growth inhibition; format: functional, organism-based
HepG2 [1] = experiment: Cytotoxicity against human HepG2 cells assessed as cell viability at 20 ug/ml by MTT assay; format: functional, cell-based; conditions: dose 20.0 µg/ml
Aspergillus fumigatus = experiment: Antimicrobial activity against Aspergillus fumigatus assessed as fungal growth inhibition; format: functional, organism-based
A549 = experiment: Cytotoxicity against human A549 cells assessed as cell viability at 20 ug/ml by MTT assay; format: functional, cell-based; conditions: dose 20.0 µg/ml
Staphylococcus aureus = experiment: Antimicrobial activity against methicillin sensitive Staphylococcus aureus assessed as bacterial growth inhibition; format: functional, organism-based
Escherichia coli = experiment: Antimicrobial activity against Escherichia coli assessed as bacterial growth inhibition; format: functional, organism-based
Candida tropicalis = experiment: Antimicrobial activity against Candida tropicalis assessed as fungal growth inhibition; format: functional, organism-based
MIA PaCa-2 = experiment: Cytotoxicity against human MIA PaCa-2 cells assessed as cell viability at 20 ug/ml by MTT assay; format: functional, cell-based; conditions: dose 20.0 µg/ml
Pichia kudriavzevii = experiment: Antimicrobial activity against Pichia kudriavzevii assessed as fungal growth inhibition; format: functional, organism-based
N2a = experiment: Cytotoxicity against mouse Neuro2a cells incubated for 24 hrs by absorbance based assay; format: functional, cell-based
HepG2 [2] = experiment: Cytotoxicity against human HepG2 cells incubated for 48 hrs by absorbance based assay; format: functional, cell-based; conditions: HepG2, 48 h

For CO[C@H]1C[C@H]([C@H](C)CC(=O)C=C(C)C)[C@@]2(C)CC[C@@]3(O)C(=C12)CC[C@H]1C(C)(C)[C@@H](O[C@@H]2OC[C@@H](O[C@@H]4O[C@H](CO)[C@H](O)[C@H](O)[C@H]4NC(C)=O)[C@H](O)[C@H]2O[C@@H]2O[C@H](CO[C@@H]4OC[C@@H](O)[C@H](O)[C@H]4O)[C@@H](O)[C@H](O)[C@H]2NC(C)=O)CC[C@@]13C, the inhibition (Nakaseomyces glabratus) was “inactive”, the inhibition (Candida albicans) was “inactive” and the Activity (MCF7) was “inactive”. For the same compound, the inhibition (Candida parapsilosis) was “inactive”, the Activity (A2058) was “inactive” and the inhibition (Acinetobacter baumannii) was “inactive”. The Activity (HepG2 [1]) was “inactive”, the inhibition (Aspergillus fumigatus) was “inactive” and the Activity (A549) was “inactive”. For the same compound, the inhibition (Staphylococcus aureus) was “inactive”, the inhibition (Escherichia coli) was “inactive” and the inhibition (Candida tropicalis) was “inactive”. The inhibition (MIA PaCa-2) was “inactive” and the inhibition (Pichia kudriavzevii) was “inactive”.
In the case of CO[C@@H]1C[C@H]([C@H](C)CC(=O)C=C(C)C)[C@@]2(C)CC[C@@]3(O)C(=C12)CC[C@H]1C(C)(C)[C@@H](O[C@@H]2OC[C@@H](O[C@@H]4O[C@H](CO)[C@H](O)[C@H](O)[C@H]4NC(C)=O)[C@H](O)[C@H]2O[C@@H]2O[C@H](CO[C@@H]4OC[C@@H](O)[C@H](O)[C@H]4O)[C@@H](O)[C@H](O)[C@H]2NC(C)=O)CC[C@@]13C, the inhibition (Nakaseomyces glabratus) is reported as “inactive”, the inhibition (Candida albicans) is reported as “inactive” and the Activity (MCF7) is reported as “inactive”. The inhibition (Candida parapsilosis) was “inactive”, the Activity (A2058) was “inactive” and the inhibition (Acinetobacter baumannii) was “inactive”. The Activity (HepG2 [1]) was “inactive”, the inhibition (Aspergillus fumigatus) was “inactive” and the Activity (A549) was “inactive”. The inhibition (Staphylococcus aureus) was “inactive”, the inhibition (Escherichia coli) was “inactive” and the inhibition (Candida tropicalis) was “inactive”. The inhibition (MIA PaCa-2) was “inactive” and the inhibition (Pichia kudriavzevii) was “inactive”.
For CC(=O)N[C@H]1[C@H](O[C@@H]2CO[C@@H](O[C@H]3CC[C@]4(C)C5=C(CC[C@H]4C3(C)C)C3CC[C@H]([C@H](C)CC(=O)C=C(C)C)[C@@]3(C)CC5)[C@H](O[C@@H]3O[C@H](CO[C@@H]4OC[C@@H](O)[C@H](O)[C@H]4O[C@@H]4O[C@H](CO)[C@H](O)[C@@H](O)[C@H]4O)[C@@H](O)[C@H](O)[C@H]3NC(C)=O)[C@H]2O)O[C@H](CO)[C@H](O)[C@@H]1O (some centres undefined), the IC50 (N2a) was 5.8 µM.
With CC(=O)N[C@H]1[C@H](O[C@@H]2CO[C@@H](O[C@H]3CC[C@]4(C)C5=CC[C@@]6(C)C(=C(CC[C@H]4C3(C)C)O5)CC[C@@H]6[C@H](C)CC(=O)C=C(C)C)[C@H](O[C@@H]3O[C@H](CO[C@@H]4OC[C@@H](O)[C@H](O)[C@H]4O[C@@H]4O[C@H](CO)[C@@H](O)[C@H](O)[C@H]4O)[C@@H](O)[C@H](O)[C@H]3NC(C)=O)[C@H]2O)O[C@H](CO)[C@H](O)[C@@H]1O the IC50 (HepG2 [2]) was 5.9 µM.
With CC(=O)N[C@H]1[C@H](O[C@@H]2CO[C@@H](O[C@H]3CC[C@]4(C)C5=C(CC[C@H]4C3(C)C)[C@@H]3CC[C@H]([C@H](C)CC(=O)C=C(C)C)[C@@]3(C)CC5)[C@H](O[C@@H]3O[C@H](CO[C@@H]4OC[C@@H](O)[C@H](O)[C@H]4O)[C@@H](O)[C@H](O)[C@H]3NC(C)=O)[C@H]2O)O[C@H](CO)[C@H](O)[C@@H]1O the inhibition (Nakaseomyces glabratus) was “inactive”, the inhibition (Candida albicans) was “inactive” and the Activity (MCF7) was “inactive”. The inhibition (Candida parapsilosis) was “inactive”, the Activity (A2058) was “inactive” and the inhibition (Acinetobacter baumannii) was “inactive”. For the same compound, the Activity (HepG2 [1]) was “inactive”, the inhibition (Aspergillus fumigatus) was “inactive” and the Activity (A549) was “inactive”. The inhibition (Staphylococcus aureus) was “inactive”, the inhibition (Escherichia coli) was “inactive” and the inhibition (Candida tropicalis) was “inactive”. The inhibition (MIA PaCa-2) was “inactive” and the inhibition (Pichia kudriavzevii) was “inactive”.
